Patent publication US6919328B1, “Tricyclic compounds with NOS activity” (Neuraxon Inc., priority 2001, dated 2005)
Where a name gives a salt, the structure may show the parent alone.

Assays:
nNOS = nNOS (Homo sapiens, UniProt P29475); test: nNOS enzyme assay (hemoglobin capture assay); format: biochemical; conditions: for IC50: hemoglobin capture assay, initial velocity, read-out: IC50 of NOS, nNOS; for inhibition at 100 µM: read-out: Percent Inhibition of NOS, nNOS
Protocol: (§1) The generation of nitric oxide by NOS was measured using the hemoglobin capture assay (Proc. Natl. Acad. Sci., U.S.A. 1990, 87, 714). As assay mixture for nNOS contained […], 1.6 mM CaCl2, […] calmoduline, […], 6.5 mM BH4 and 3 mM oxyhemoglobin in 100 mM Hepes (pH 7.5). The reaction mixture for iNOS contained 10 mM of L-arginine, […], 6.5 mM BH4 and 3 mM oxyhemoglobin in 100 mM Hepes (pH 7.5). All assays were in a final volume of […] and were initiated with enzyme. Nitric oxide reacts with oxyhemoglobin to yield methehemoglobin which is detected at 401 nm (e=19,700 M^−1cm^−1) on a Perkin-Elmer Lamda 10 UV/vis spectrophotometer.
(§2) IC50 and percent inhibition of NOS by the compounds of the invention was determined under initial velocity measurement condition with hemoglobin capture assay as described above using varying concentrations of the compounds of the invention.

iNOS = iNOS (Homo sapiens, UniProt P35228); test: iNOS enzyme assay (hemoglobin capture assay); format: biochemical; conditions: for IC50: hemoglobin capture assay, initial velocity, read-out: IC50 of NOS, iNOS; for inhibition at 100 µM: read-out: Percent Inhibition of NOS, iNOS
Protocol: as §1, §2

Structure (SMILES) | IC50 (nNOS) | IC50 (iNOS) | inhibition at 100 µM (nNOS) | inhibition at 100 µM (iNOS)
O=C(NC(=S)Nc1ccc2c(c1)C(=O)Nc1ccccc1N2)c1ccccc1 [Example 8, 1-Benzoyl-3-(11-oxo-10,11-dihydro-5H-dibenzo[b,e][1,4]diazepin-2-yl)-thiourea] | 120 µM | 300 µM | – | –
NC(=S)Nc1ccc2c(c1)C(=O)Nc1ccccc1N2 [Example 9, (11-Oxo-10,11-dihydro-5H-dibenzo[b,e][1,4]diazepin-2-yl)-thiourea] | 250 µM | 300 µM | – | –
CCSC(=N)Nc1ccc2c(c1)C(=O)Nc1ccccc1N2 [Example 10, 2-Ethyl-1-(11-oxo-10,11-dihydro-5H-dibenzo[b,e][1,4]diazepin-2-yl)-isothiourea] | 20 µM | 100 µM | – | –
CC(=N)Nc1ccc2c(c1)C(=O)Nc1ccccc1N2 [Example 11, N-(11-Oxo-10,11-dihydro-5H-dibenzo[b,e][1,4]diazeoin-2-yl)-acetamidine hydrobromide] | 200 µM | 500 µM | – | –
O=C(NC(=S)Nc1ccc2c(c1)C(=O)Nc1ccccc1O2)c1ccccc1 [Example 15, 1-Benzoyl-3-(11-oxo-10,11-dihydro-dibenzo[b,f][1,4]oxazepin-2-yl)-thiourea] | 100 µM | 200 µM | – | –
N=C(Nc1ccc2c(c1)C(=O)Nc1ccccc1O2)c1cccs1 [Example 18, N-(11-Oxo-10,11-dihydro-dibenzo[b,f][1,4]oxazepin-2-yl)-thiophene-2-carboxamidine hyrobromide] | – | – | 25% | 14%
N=C(Nc1ccc2c(c1)C(=O)Nc1ccccc1N2)c1cccs1 [Example 19, N-(11-Oxo-10,11-dihydro-5H-dibenzo[b,e][1,4]diazepin-2-yl)-thiophene-2-carboxamidine hydrobromide] | – | – | 42% | 17%

Now from value to compound:

IC50 (nNOS) | IC50 (iNOS) | inhibition at 100 µM (nNOS) | inhibition at 100 µM (iNOS) | Structure (SMILES)
400 µM | 500 µM | – | – | CC(=O)Nc1ccc2c(c1)C(=O)Nc1ccccc1N2 [Example 7, N-(11-Oxo-10,11-dihydro-5H-dibenzo[b,e][1,4]diazepin-2-yl)-acetamide]
– | – | 21% | 28% | N=C(Nc1ccc2c(c1)C(=O)Nc1ccccc1N2)SCc1ccc2ccccc2c1 [Example 12, 2-Naphthalen-2-ylmethyl-1-(11-oxo-10,11-dihydro-5H-dibenzo[b,e][1,4]diazepin-2-yl)-isothiourea]
– | – | 48% | 29% | N=C(Nc1ccc2c(c1)C(=O)Nc1ccccc1N2)SCc1ccccc1 [Example 13, 2-Benzyl-1-(11-oxo-10,11-dihydro-5H-dibenzo[b,e][1,4]diazepin-2-yl)-isothiourea]
200 µM | 300 µM | – | – | CC(=N)Nc1ccc2c(c1)C(=O)Nc1ccccc1O2 [Example 14, N-(11-Oxo-10,11-dihydro-dibenzo[b,f][1,4]oxazepin-2-yl)-acetamidine]
200 µM | 150 µM | – | – | NC(=S)Nc1ccc2c(c1)C(=O)Nc1ccccc1O2 [Example 16, (11-Oxo-10,11-dihydro-dibenzo[b,f][1,4]oxazepin-2-yl)-thiourea]
– | – | 7% | 24% | O=C1Nc2ccccc2Oc2ccc(NC(=S)Nc3ccccc3)cc21 [Example 17, 1-(11-Oxo-10,11-dihydro-dibenzo[b,f][1,4]oxazegin-2-yl)-3-phenyl-thiourea]
